We go through three compounds from article PMC12217481, “Structure and mechanism of taniborbactam inhibition of the cefepime-hydrolyzing, partial R2-loop deletion Pseudomonas-derived cephalosporinase variant PDC-88” (Antimicrobial Agents and Chemotherapy, 2025).

Converted amounts (≈) assume the structure as drawn. Like-named read-outs stand apart in the source and are kept apart here.

One assay has as its system E. coli ATCC 35218. Kind of assay: Broth microdilution MIC, CLSI quality control strain. It counts as cell-based. The following applies: Escherichia coli, ATCC35218, read-out: MIC TOL TZB. The method, then: (§1) Modal broth microdilution MICs (or median broth microdilution MICs where appropriate) were determined in accordance with Clinical and Laboratory Standards Institute (CLSI) M07 guidelines ([43]). Isogenic E. coli DH10B cells expressing the abovementioned plasmid-encoded PDC constructs were used. […] CLSI quality control strains Escherichia coli NCTC 13353, E. coli ATCC 35218, and Klebsiella pneumoniae ATCC 700603 were used during testing ([24]).

Assay [1] has as its target T1, PDC-88 (Pseudomonas aeruginosa, UniProt P24735, DEL316-317/G27D/G391A/T105A/V205L/V356I).
T1 construct: NdeI 5′-[…]-3ʹ and BamHI 5ʹ-[…]-3ʹ; His tag removed) (N); made in house; host or cells: E. coli BL21-CodonPlus (DE3)-RP, pET24a(+)
Kind of assay: Timed ESI-MS of acyl-enzyme formation, PDC-88. It counts as biochemical. The following applies: for acyl-enzyme complex formation and deacylation: timed ESI-MS, 1 to 30 min (ATM to 60 min). The procedure:
(§2) Timed ESI-MS experiments allow tracking of the reaction over time and determination of product modification, enabling the elucidation of mechanistic detail. Time courses were collected for both PDC-3 and PDC-88 with FEP (Fig. 4), CAZ (Fig. S1), TOL (Fig. S2), and ATM (Fig. S3). Substrate modification (here, loss of the R2 group) was determined based on differences between masses of apo and acyl-enzyme peaks (Fig. S4). […] Based on the differences in mass between the apo enzyme peaks, the acyl-enzyme peaks, and the molecular masses of each substrate, the mass of the adducts was determined and used to predict any portion of the substrate molecule that might be lost during the reaction (Fig. S4). As expected ([26][–][28]), all three cephalosporin antibiotics (FEP, CAZ, and TOL) lost their R2 groups during the reaction, while ATM (the sole monobactam) maintained its initial mass.
(§3) Five micrograms of PDC-3 or PDC-88 was incubated at the indicated molar ratio (1:2 to 1:100 PDC:β-lactam) in a total volume of 20 µL in 1× PBS at pH 7.4 at room temperature for the duration of the indicated time points. Reactions were quenched with the addition of 10 µL acetonitrile and added to 1 mL of 0.1% formic acid in water.
(§4) Data were collected using a Waters Synapt G2-Si quadrupole time-of-flight (Q-TOF) mass spectrometer and Waters Acquity UPLC BEH C18 1.7 µm column (2.1 by 100 mm). MassLynx V4.1 was used to deconvolute protein peaks. The tune settings for each sample were as follows: capillary voltage of 3.5 kV, sampling cone voltage of 35 V, source offset of 35 V, source temperature of 100°C, desolvation temperature of 500°C, cone gas flow rate of 100 L/h, desolvation gas flow rate of 800 L/h, and nebulizer bar at 6.0. Mobile phase A was 0.1% formic acid in water. Mobile phase B was 0.1% formic acid in acetonitrile. The mass accuracy of this system is ±5 Da.

Assay [2] relates to E. coli DH10B/pTU628 (PDC-91). Kind of assay: Broth microdilution MIC, isogenic E. coli expressing PDC-91. Type of assay: cell-based. The note with it: Escherichia coli. The procedure:
(§5) Genetic constructs used for minimum inhibitory concentration (MIC) testing were designed by Venatorx Pharmaceuticals and codon-optimized for use in E. coli and synthesized by Twist Bioscience as described previously ([9]). […] DH10B cells expressing an empty pET24a(+) vector (Novagen) were also grown, and the plasmid purified. Both pCR4-TOPO-PDC-88 and empty pET24a(+) were cut with BamHI and NdeI, the digests run on low-melting point agarose gels, and the bands of interest excised and ligated to yield a PDC-88 expressing pET24a(+) construct with the His tag removed. The PDC-3 expression construct was created in a similar manner but starting with a previously described pBC SK(−) vector ([42]). The final plasmids were grown in E. coli DH10B cells and purified.
as §1
On the technique in general: Broth dilution looks for growth in wells or tubes with falling amounts of substance.

Assay [3] has as its system PDC-88. Kind of assay: Spectrophotometric β-lactam hydrolysis (progress curves, steady-state kinetics) by PDC-88. It counts as biochemical, Pseudomonas aeruginosa. The following applies: over 900 s. The procedure: In order to determine the impact of the PDC-88 variant on hydrolysis, we determined hydrolysis progress curves for PDC-3, PDC-88, and a strongly hydrolyzing comparator (NDM-1 or PER-2) for cefepime (FEP, Fig. 3A), ceftazidime (CAZ, Fig. 3B), ceftolozane (TOL, Fig. 3C), and aztreonam (ATM, Fig. 3D).
β-Lactamase kinetic and inhibitor constants were determined using an Agilent 8453 UV-Visible Spectrophotometer to record progress curves and determine initial rates and other kinetic parameters as appropriate. Reactions were carried out in 1× phosphate-buffered saline (PBS) (pH 7.4) at room temperature in a 0.2 cm path-length quartz cuvette (Hellma Analytics). Reads were taken every 10 s to minimize UV-mediated background hydrolysis.
The extinction coefficients used were: nitrocefin, Δε482 = 17,400 M^−1 cm^−1, and cefepime, Δε260 = −10,000 M^−1 cm^−1.
The kinetic constants KM and Vmax were determined using a nonlinear least-squares regression of the data to the Henri-Michaelis-Menten equation (equation 1) in Origin Version 2020b (OriginLab, Northampton, MA), where v is the velocity of the reaction; Vmax is the theoretical maximum velocity; KM is the Michaelis constant; and [S] is the substrate concentration: […]

Assay [4] relates to E. coli DH10B/pTU627 (PDC-90). Kind of assay: Broth microdilution MIC, isogenic E. coli expressing PDC-90. Type of assay: cell-based. The following applies: Escherichia coli. The procedure: as §5, §1
Assay [5] has as its system E. coli DH10B/pTU501 (vector). Kind of assay: Broth microdilution MIC, isogenic E. coli empty vector control. Type of assay: cell-based. The note with it: Escherichia coli. The procedure: as §5, §1
Assay [6] has as its system E. coli DH10B/pTU626 (PDC-89). Kind of assay: Broth microdilution MIC, isogenic E. coli expressing PDC-89. Type of assay: cell-based. The note with it: Escherichia coli. The method, then: as §5, §1
The next assay addresses T2, PDC-3 (Pseudomonas aeruginosa, UniProt P24735, T105A).
T2 construct: The PDC-3 expression construct was created in a similar manner but starting with a previously described pBC SK(−) vector; made in house; host or cells: E. coli BL21-CodonPlus (DE3)-RP, pET24a(+)
Kind of assay: Timed ESI-MS of acyl-enzyme formation, PDC-3. Type of assay: biochemical. The following applies: for acyl-enzyme complex formation and deacylation: timed ESI-MS, 1 to 30 min (ATM to 60 min). The procedure: as §2, §3, §4

The subject of assay [7] is E. coli DH10B/pTU625 (PDC-88). Kind of assay: Broth microdilution MIC, isogenic E. coli expressing PDC-88. The note with it: Escherichia coli. Type of assay: cell-based, Escherichia coli. The method, then: as §5, §1
The subject of assay [8] is E. coli DH10B/pTU609 (PDC-3). Kind of assay: Broth microdilution MIC, isogenic E. coli expressing PDC-3. Type of assay: cell-based. The following applies: Escherichia coli. The procedure:
as §5, §1

Assay [9] concerns E. coli DH10B/pTU629 (PDC-92). Kind of assay: Broth microdilution MIC, isogenic E. coli expressing PDC-92. The note with it: Escherichia coli. It counts as cell-based. The method, then:
as §5, §1

The test system of assay [10] is E. coli DH10B/pTU606 (PDC-1). Kind of assay: Broth microdilution MIC, isogenic E. coli expressing PDC-1. It counts as cell-based. The note with it: Escherichia coli. The method, then:
as §5, §1

Assay [11] relates to K. pneumoniae ATCC 700603. Kind of assay: Broth microdilution MIC, CLSI quality control strain. The note with it: Klebsiella pneumoniae. Type of assay: cell-based. The method, then:
as §1

In a further assay the test system is NDM-1. The arrangement: method as in PMID 22005056. The following applies: cited from earlier work.
The mark [12] stands for this setting: 60 min incubation, starting molar ratio 1:2.

The term MIC denotes the lowest concentration found to suppress growth.

On to `Cn1c(N)c(NC(=O)NCCN)c[n+]1CC1=C(C(=O)O)N2C(=O)[C@@H](NC(=O)/C(=N\OC(C)(C)C(=O)[O-])c3nsc(N)n3)[C@H]2SC1` [TOL, ceftolozane], for which the MIC amounted to 0.25 µg/mL (≈ 0.375 µM) in the assay on E. coli ATCC 35218; 16 µg/mL (≈ 24 µM) in [2] (read-out: MIC TOL TZB); 16 µg/mL (≈ 24 µM) in assay [2] (E. coli DH10B/pTU628 (PDC-91), read-out: MIC TOL Alone); 16 µg/mL (≈ 24 µM) in assay [4] (read-out: MIC TOL TZB); 16 µg/mL (≈ 24 µM) in assay [4] (E. coli DH10B/pTU627 (PDC-90), read-out: MIC TOL Alone); 0.5 µg/mL (≈ 0.75 µM) in assay [5] (read-out: MIC TOL Alone). In addition, the MIC in assay [5] (read-out: MIC TOL TZB) came to 0.5 µg/mL (≈ 0.75 µM); in [6] (read-out: MIC TOL TZB), 8 µg/mL (≈ 12 µM); in assay [6] (E. coli DH10B/pTU626 (PDC-89), read-out: MIC TOL Alone), 16 µg/mL (≈ 24 µM); in assay [7] (read-out: MIC TOL TZB), 8 µg/mL (≈ 12 µM); in [7] (E. coli DH10B/pTU625 (PDC-88), read-out: MIC TOL Alone), 16 µg/mL (≈ 24 µM); in assay [8] (read-out: MIC TOL TZB), 4 µg/mL (≈ 6 µM). Also, the MIC in [8] (E. coli DH10B/pTU609 (PDC-3), read-out: MIC TOL Alone) is 4 µg/mL (≈ 6 µM); in assay [9] (read-out: MIC TOL TZB), 8 µg/mL (≈ 12 µM); in assay [9] (E. coli DH10B/pTU629 (PDC-92), read-out: MIC TOL Alone), 16 µg/mL (≈ 24 µM); in assay [10] (read-out: MIC TOL TZB), 4 µg/mL (≈ 6 µM); in assay [10] (E. coli DH10B/pTU606 (PDC-1), read-out: MIC TOL Alone), 4 µg/mL (≈ 6 µM). For the same compound, the results for the “acyl-enzyme complex formation and deacylation” value on PDC-88 [1] and at PDC-3 were “formed an acyl-enzyme complex that deacylated at a moderate rate” and “did not form a detectable acyl-enzyme complex”, respectively. In addition, the “difference between hydrolysis progress curves of PDC-3 and PDC-88” value in the assay with PDC-88 [3] is listed as “no appreciable difference”.

Consider `CC(C)(O/N=C(\C(=O)N[C@@H]1C(=O)N2C(C(=O)[O-])=C(C[n+]3ccccc3)CS[C@H]12)c1csc(N)n1)C(=O)O` [CAZ, ceftazidime], for which the MIC in [11] (ATCC700603, read-out: MIC CAZ AVI) was 1 µg/mL (≈ 1.83 µM); in assay [11] (ATCC700603, read-out: MIC CAZ Alone), 32 µg/mL (≈ 58.5 µM); in assay [2] (read-out: MIC CAZ AVI), 1 µg/mL (≈ 1.83 µM); in assay [2] (E. coli DH10B/pTU628 (PDC-91), read-out: MIC CAZ Alone), 128 µg/mL (≈ 234 µM); in [4] (read-out: MIC CAZ AVI), 2 µg/mL (≈ 3.66 µM); in [4] (E. coli DH10B/pTU627 (PDC-90), read-out: MIC CAZ Alone), greater than 128 µg/mL. Moreover, the MIC in assay [5] (read-out: MIC CAZ AVI) is 0.5 µg/mL (≈ 0.915 µM); in assay [5] (read-out: MIC CAZ Alone), 0.5 µg/mL (≈ 0.915 µM); in [6] (read-out: MIC CAZ AVI) it was 1 µg/mL (≈ 1.83 µM); in assay [6] (E. coli DH10B/pTU626 (PDC-89), read-out: MIC CAZ Alone), 128 µg/mL (≈ 234 µM); in [7] (read-out: MIC CAZ AVI), 1 µg/mL (≈ 1.83 µM); in assay [7] (E. coli DH10B/pTU625 (PDC-88), read-out: MIC CAZ Alone), 128 µg/mL (≈ 234 µM). Further, the MIC in [8] (read-out: MIC CAZ AVI) was 1 µg/mL (≈ 1.83 µM); in assay [8] (E. coli DH10B/pTU609 (PDC-3), read-out: MIC CAZ Alone), 64 µg/mL (≈ 117 µM); in [9] (read-out: MIC CAZ AVI), 1 µg/mL (≈ 1.83 µM); in [9] (E. coli DH10B/pTU629 (PDC-92), read-out: MIC CAZ Alone) it was greater than 128 µg/mL; in [10] (read-out: MIC CAZ AVI) it was 1 µg/mL (≈ 1.83 µM); in assay [10] (E. coli DH10B/pTU606 (PDC-1), read-out: MIC CAZ Alone), 64 µg/mL (≈ 117 µM). Moreover, the “acyl-enzyme complex formation and deacylation” value on PDC-88 [1] and on PDC-3 was “formed acyl-enzyme complexes with CAZ that deacylated slowly” in each case. The “difference between hydrolysis progress curves of PDC-3 and PDC-88” value in the assay with PDC-88 [3] is “no appreciable difference”.

`C[C@H]1[C@H](NC(=O)/C(=N\OC(C)(C)C(=O)O)c2csc(N)n2)C(=O)N1S(=O)(=O)O` [ATM, aztreonam]: the “hydrolysis by NDM-1” value in the assay with NDM-1 is given as “does not hydrolyze”. Moreover, the entries for the “apo enzyme after incubation” value on PDC-88 [1] (setting [12]) and on PDC-3 (setting [12]) were “no apo enzyme present” and “less than 10%”, respectively. The “acyl-enzyme complex formation and deacylation” value on PDC-88 [1] and at PDC-3 was “quickly formed acyl-enzyme complexes” in each case.
